Earlier results on 1 molecule are cited in US20130274331A1, “Method for Treating Hyperuricemia in Patients with Gout Using Halofenate or Halofenic Acid and an Anti-Inflammatory Agent” (Metabolex, Inc., priority 2012, published 2013).

The conditions of this series: gout patients; monotherapy at 40, 80, 120, 160 and 240 mg/day.

Take `O=c1[nH]cnc2c(CN3C[C@H](CO)[C@@H](O)C3)c[nH]c12` [BCX4208, 7-(((3R,4R)-3-hydroxy-4-(hydroxymethyl)pyrrolidin-1-yl)methyl)-3H-pyrrolo[3,2-d]pyrimidin-4(5H)-one]: the “reduction of serum uric acid” value is “rapidly and significantly reduced serum uric acid”.
